Results reported in ChEMBL document CHEMBL1141813, “Activities of plant-derived phenols in a fibroblast cell culture model” (J Nat Prod, 1999).
Active and inactive are the calls of the source. No cut-off for these calls is given here.

tested on: BALB/3T3; test: Growth inhibition of BALB/c mouse cloned 3T3/A31 cells at 10 to 100 ug/mL after 72 hrs by nigrosin assay; assay type: functional, cell-based; conditions: not given

SMILES	Activity
O=c1cc(-c2ccccc2)oc2cc(O)c(O)c(O)c12 [BAICALEIN]	Active
COc1ccc(-c2coc3cc(O)cc(O)c3c2=O)cc1 [BIOCHANIN]	Active
Oc1cc(O)c2c(c1)OC(c1ccc(O)c(O)c1)C(O)C2 (configuration not stated) [CATECHIN]	Active
O=c1c(O)c(-c2ccc(O)c(O)c2)oc2cc(O)cc(O)c12 [QUERCETIN]	Active
COc1ccc(/C=C/C(=O)O)cc1OC [O,O'-DIMETHYLCAFFEIC ACID]	Active
O=C(O)/C=C/c1ccc(O)c(O)c1 [CAFFEIC ACID]	Active
O=C(O)/C=C/c1ccccc1 [CINNAMIC ACID]	Active

tested on: BALB/3T3; test: (§1) Growth inhibition of BALB/c mouse cloned 3T3/A31 cells after 72 hrs by nigrosin assay; assay type: functional, cell-based; conditions: not given

SMILES	Activity
O=c1cc(-c2ccccc2)oc2ccccc12 [FLAVONE]	Dose-dependent effect
O=C(/C=C/c1ccc(O)c(O)c1)O[C@@H]1C[C@](O)(C(=O)O)C[C@@H](O)[C@H]1O [CHLOROGENIC ACID]	Dose-dependent effect
C[C@@H]1O[C@@H](OC[C@H]2O[C@@H](Oc3c(-c4ccc(O)c(O)c4)oc4cc(O)cc(O)c4c3=O)[C@H](O)[C@@H](O)[C@@H]2O)[C@H](O)[C@H](O)[C@H]1O [RUTIN]	Dose-dependent effect
O=c1cc(-c2ccccc2)oc2cc(O)c(O)c(O)c12 [BAICALEIN]	Dose-dependent effect
O=c1c(-c2ccc(O)cc2)coc2cc(O)cc(O)c12 [GENISTEIN]	Dose-dependent effect
COc1ccc(-c2coc3cc(O)cc(O)c3c2=O)cc1 [BIOCHANIN]	Dose-dependent effect
C[C@@H]1O[C@@H](Oc2c(-c3ccc(O)c(O)c3)oc3cc(O)cc(O)c3c2=O)[C@H](O)[C@H](O)[C@H]1O [QUERCITRIN]	Dose-dependent effect
Oc1cc(O)c2c(c1)OC(c1ccc(O)c(O)c1)C(O)C2 (configuration not stated) [CATECHIN]	Dose-dependent effect
O=c1c(O)c(-c2ccc(O)c(O)c2)oc2cc(O)cc(O)c12 [QUERCETIN]	Dose-dependent effect
COc1ccc(/C=C/C(=O)O)cc1OC [O,O'-DIMETHYLCAFFEIC ACID]	Dose-dependent effect
O=C(O)/C=C/c1ccc(O)c(O)c1 [CAFFEIC ACID]	Dose-dependent effect
O=c1cc(-c2ccccc2)oc2cc(O)cc(O)c12 [CHRYSIN]	Dose-dependent effect
O=C(O)/C=C/c1ccccc1 [CINNAMIC ACID]	Dose-dependent effect
O=c1cc(-c2ccc(O)cc2)oc2cc(O)cc(O)c12 [APIGENIN]	Dose-dependent effect

tested on: not listed separately; test: as §1; assay type: functional, cell-based; conditions: BALB/3T3, 72 h

SMILES	IC50 [µM]
O=c1cc(-c2ccccc2)oc2ccccc12 [FLAVONE]	287
O=C(/C=C/c1ccc(O)c(O)c1)O[C@@H]1C[C@](O)(C(=O)O)C[C@@H](O)[C@H]1O [CHLOROGENIC ACID]	> 280
C[C@@H]1O[C@@H](OC[C@H]2O[C@@H](Oc3c(-c4ccc(O)c(O)c4)oc4cc(O)cc(O)c4c3=O)[C@H](O)[C@@H](O)[C@@H]2O)[C@H](O)[C@H](O)[C@H]1O [RUTIN]	> 164
O=c1cc(-c2ccccc2)oc2cc(O)c(O)c(O)c12 [BAICALEIN]	342
O=c1c(-c2ccc(O)cc2)coc2cc(O)cc(O)c12 [GENISTEIN]	184
COc1ccc(-c2coc3cc(O)cc(O)c3c2=O)cc1 [BIOCHANIN]	220
C[C@@H]1O[C@@H](Oc2c(-c3ccc(O)c(O)c3)oc3cc(O)cc(O)c3c2=O)[C@H](O)[C@H](O)[C@H]1O [QUERCITRIN]	> 223
Oc1cc(O)c2c(c1)OC(c1ccc(O)c(O)c1)C(O)C2 (configuration not stated) [CATECHIN]	> 344
O=c1c(O)c(-c2ccc(O)c(O)c2)oc2cc(O)cc(O)c12 [QUERCETIN]	217
COc1ccc(/C=C/C(=O)O)cc1OC [O,O'-DIMETHYLCAFFEIC ACID]	> 480
O=C(O)/C=C/c1ccc(O)c(O)c1 [CAFFEIC ACID]	554
O=c1cc(-c2ccccc2)oc2cc(O)cc(O)c12 [CHRYSIN]	248
O=C(O)/C=C/c1ccccc1 [CINNAMIC ACID]	671
O=c1cc(-c2ccc(O)cc2)oc2cc(O)cc(O)c12 [APIGENIN]	141

tested on: BALB/3T3; test: Stimulation of BALB/c mouse cloned 3T3/A31 cells growth at 0.01 to 0.1 ug/mL; assay type: functional; conditions: not given

SMILES	Activity [%]
O=C(/C=C/c1ccc(O)c(O)c1)O[C@@H]1C[C@](O)(C(=O)O)C[C@@H](O)[C@H]1O [CHLOROGENIC ACID]	5.3
O=c1c(-c2ccc(O)cc2)coc2cc(O)cc(O)c12 [GENISTEIN]	5.3
O=c1c(O)c(-c2ccc(O)c(O)c2)oc2cc(O)cc(O)c12 [QUERCETIN]	5.3

tested on: BALB/3T3; test: Stimulation of BALB/c mouse cloned 3T3/A31 cells growth at 0.01 to 1 ug/mL; assay type: functional; conditions: not given

SMILES	Activity [%]
C[C@@H]1O[C@@H](Oc2c(-c3ccc(O)c(O)c3)oc3cc(O)cc(O)c3c2=O)[C@H](O)[C@H](O)[C@H]1O [QUERCITRIN]	4.9

tested on: not listed separately; test: Stimulation of BALB/c mouse cloned 3T3/A31 cells proliferation at 0.01 ug/mL; assay type: functional, BALB/3T3; conditions: not given

SMILES	Activity [%]
C[C@@H]1O[C@@H](OC[C@H]2O[C@@H](Oc3c(-c4ccc(O)c(O)c4)oc4cc(O)cc(O)c4c3=O)[C@H](O)[C@@H](O)[C@@H]2O)[C@H](O)[C@H](O)[C@H]1O [RUTIN]	30.4

tested on: BALB/3T3; test: Cytotoxicity against BALB/c mouse cloned 3T3/A31 cells at 1 to 100 ug/mL after 72 hrs by nigrosin assay; assay type: functional, cell-based; conditions: not given

SMILES	Activity
O=c1cc(-c2ccccc2)oc2ccccc12 [FLAVONE]	Active
O=c1c(-c2ccc(O)cc2)coc2cc(O)cc(O)c12 [GENISTEIN]	Active
O=c1cc(-c2ccccc2)oc2cc(O)cc(O)c12 [CHRYSIN]	Active

tested on: BALB/3T3; test: Growth inhibition of BALB/c mouse cloned 3T3/A31 cells at 100 ug/mL after 72 hrs by nigrosin assay; assay type: functional, cell-based; conditions: not given

SMILES	Activity
O=C(/C=C/c1ccc(O)c(O)c1)O[C@@H]1C[C@](O)(C(=O)O)C[C@@H](O)[C@H]1O [CHLOROGENIC ACID]	Active
C[C@@H]1O[C@@H](Oc2c(-c3ccc(O)c(O)c3)oc3cc(O)cc(O)c3c2=O)[C@H](O)[C@H](O)[C@H]1O [QUERCITRIN]	Active

tested on: BALB/3T3; test: Growth inhibition of BALB/c mouse cloned 3T3/A31 cells at 0.01 to 100 ug/mL after 72 hrs by nigrosin assay; assay type: functional, cell-based; conditions: not given

SMILES	Activity
O=c1cc(-c2ccc(O)cc2)oc2cc(O)cc(O)c12 [APIGENIN]	Active

tested on: BALB/3T3; test: Stimulation of BALB/c mouse cloned 3T3/A31 cells proliferation at 0.01 to 10 ug/mL; assay type: functional, cell-based; conditions: not given

SMILES	Activity
C[C@@H]1O[C@@H](OC[C@H]2O[C@@H](Oc3c(-c4ccc(O)c(O)c4)oc4cc(O)cc(O)c4c3=O)[C@H](O)[C@@H](O)[C@@H]2O)[C@H](O)[C@H](O)[C@H]1O [RUTIN]	Active
